The nature of data set [1]: Drug level in human RBC assessed as concentration of Lamivudine triphosphate per 10^6 cells. The class given is ADME, cell-based. Conditions: erythrocyte.
Data set [2] in a line: Drug level in human RBC assessed as concentration of Lamivudine triphosphate per 10^6 cells after 0.3 hrs. The conditions noted are these: erythrocyte. The class given is ADME, cell-based.
Data set [3] has as its system PBMC. Briefly: Drug level in human PBMC assessed as concentration of Lamivudine triphosphate per 10^6 cells. The data set is classed as ADME, cell-based.
The test system of data set [4] is PBMC. Put plainly: Drug level in human PBMC assessed as concentration of Lamivudine triphosphate per 10^6 cells after 0.3 hrs. The data set is classed as ADME, cell-based.
Data set [5] can be described thus: Ratio of drug level in human RBC to human PBMC assessed as concentration of Lamivudine triphosphate. The class given is ADME. Conditions: erythrocytes.
Data set [6] in a line: Ratio of drug level in human RBC to human PBMC assessed as concentration of Lamivudine triphosphate after 0.3 hrs. The data set is classed as ADME. The conditions noted are these: erythrocytes.
The nature of data set [7]: Drug level in human RBC assessed as concentration of tenofovir diphosphate per 10^6 cells after 11.9 hrs. The conditions noted are these: erythrocyte. The data set is classed as ADME, cell-based.
Data set [8] can be described thus: Drug level in human RBC assessed as concentration of tenofovir diphosphate per 10^6 cells after 13.3 hrs. The class given is ADME, cell-based. Conditions: erythrocyte.
Data set [9] is described as follows: Drug level in human RBC assessed as concentration of tenofovir diphosphate per 10^6 cells after 0.8 hrs. The class given is ADME, cell-based. Conditions: erythrocyte.
The nature of data set [10]: Drug level in human RBC assessed as concentration of tenofovir diphosphate per 10^6 cells after 14.3 hrs. The data set is classed as ADME, cell-based. The conditions noted are these: erythrocyte.
A short description of data set [11]: Drug level in human RBC assessed as concentration of tenofovir diphosphate per 10^6 cells after 13.5 hrs. The class given is ADME, cell-based. The conditions noted are these: erythrocyte.
In data set [12] the test system is PBMC. Put plainly: Drug level in human PBMC assessed as concentration of tenofovir diphosphate per 10^6 cells after 11.9 hrs. The data set is classed as ADME, cell-based.
Data set [13] deals with PBMC. Put plainly: Drug level in human PBMC assessed as concentration of tenofovir diphosphate per 10^6 cells after 13.9 hrs. The class given is ADME, cell-based.
In data set [14] the test system is PBMC. Put plainly: Drug level in human PBMC assessed as concentration of tenofovir diphosphate per 10^6 cells after 0.8 hrs. The data set is classed as ADME, cell-based.
The subject of data set [15] is PBMC. Briefly: Drug level in human PBMC assessed as concentration of tenofovir diphosphate per 10^6 cells after 14.3 hrs. The class given is ADME, cell-based.
Data set [16] is described as follows: Ratio of drug level in human RBC to human PBMC assessed as concentration of Lamivudine triphosphate after 0.8 hrs. The class given is ADME. The conditions noted are these: erythrocytes.
Data set [17] is described as follows: Ratio of drug level in human RBC to human PBMC assessed as concentration of Lamivudine triphosphate after 14.3 hrs. The class given is ADME. The conditions noted are these: erythrocytes.
Data set [18] in a line: Ratio of drug level in human RBC to human PBMC assessed as concentration of lamivudin triphosphate after 13.5 hrs. The class given is ADME. The conditions noted are these: erythrocytes.
The test system of data set [19] is PBMC. Put plainly: Drug level in non-lysed human PBMC assessed as concentration of tenofovir diphosphate after 2 hrs. The class given is ADME, cell-based.
Data set [20] concerns PBMC. Briefly: Drug level in non-lysed human PBMC assessed as concentration of tenofovir diphosphate after 9.5 hrs. The class given is ADME, cell-based.
Data set [21] relates to PBMC. Put plainly: Drug level in RBC lysed human PBMC assessed as concentration of tenofovir diphosphate after 2 hrs. The data set is classed as ADME, cell-based.
Data set [22] concerns PBMC. Put plainly: Drug level in RBC lysed human PBMC assessed as concentration of tenofovir diphosphate after 9.5 hrs. The class given is ADME, cell-based.
For data set [23], the system named is PBMC. Briefly: Ratio of drug level in non-lysed human PBMC to RBC lysed human PBMC assessed as concentration of tenofovir diphosphate after 2 hrs. The data set is classed as ADME, cell-based.
Data set [24] has as its system PBMC. Briefly: Ratio of drug level in non-lysed human PBMC to RBC lysed human PBMC assessed as concentration of tenofovir diphosphate after 9.5 hrs. The class given is ADME, cell-based.
Data set [25] has as its system PBMC. Briefly: Drug level in human PBMC assessed as concentration of tenofovir diphosphate per 10^6 cells after 13.5 hrs. The class given is ADME, cell-based.
Data set [26] can be described thus: Ratio of drug level in human RBC to human PBMC assessed as concentration of Lamivudine triphosphate after 11.9 hrs. The class given is ADME. Conditions: erythrocytes.
The nature of data set [27]: Ratio of drug level in human RBC to human PBMC assessed as concentration of Lamivudine triphosphate after 13.3 hrs. The data set is classed as ADME. The conditions noted are these: erythrocytes.

As for `Nc1ccn([C@@H]2CS[C@H](CO)O2)c(=O)n1` (single isomer, unassigned) [LAMIVUDINE], the Drug uptake in data set [1] is recorded as 0.04 pmol; in data set [2], 0.09 pmol; in [3], 11.1 pmol; in data set [4], 10.5 pmol. Also, the results for the Ratio in data set [5] and in data set [6] were 0.004 and 0.009, respectively.
For `CC(C)OC(=O)OCOP(=O)(CO[C@H](C)Cn1cnc2c(N)ncnc21)OCOC(=O)OC(C)C.O=C(O)/C=C/C(=O)O` [TENOFOVIR DISOPROXIL FUMARATE], the Drug uptake is 143 fmol in [7]; 165 fmol in data set [8]; 443 fmol in data set [9]; 73.3 fmol in [10]; 245 fmol in data set [11]; 131 fmol in data set [12]. For the same compound, the Drug uptake in data set [13] is given as 148 fmol; in data set [14], 226 fmol; in [15] it was 95.5 fmol; in data set [19], 302.6 fmol; in data set [20], 1287 fmol; in [21], 376.6 fmol. The Drug uptake in data set [22] amounted to 182.5 fmol; in [25], 202 fmol. The Ratio turned out to be 2 in [16]; 0.8 in data set [17]; 1.2 in [18]; 0.8 in data set [23]; 7.05 in data set [24]; 1.1 in data set [26]. Besides, in data set [27], the Ratio came to 1.1.

Values taken from ChEMBL document CHEMBL1145487, “Evidence and possible consequences of the phosphorylation of nucleoside reverse transcriptase inhibitors in human red blood cells” (Antimicrob Agents Chemother, 2007).
